From ChEMBL document CHEMBL1201862, “PubChem BioAssay data set” (2004)
Calls of active or inactive are those of the source.

Columns and labels:
[1] = molecular target: Beta-2 adrenergic receptor (Homo sapiens, UniProt P07550); test: ADRB2 activation measured by internalization – cell-based, FAP fluorogen, flow cytometry, cherry pick 1, dose response (AID 588763); format: functional
[2] = NIH-3T3 fibroblast cytotoxicity, dose response, cytotoxicity control, cell-based, fluorescence, Alamar Blue, secondary assay (AID 2327); format: functional;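 further: NIH-3T3 mouse fibroblasts cultured with fluconazole at 8 µg/mL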
[3] = fluconazole-exposed Candida albicans growth modulators – fluorescence, retest, confirmation (AID 2467); format: functional, cell-based
[4] = microbe, parasite or virus in culture; format: functional; settings: Mycobacterium tuberculosis
[5] = molecular target: Serine/threonine-protein phosphatase (Candida dubliniensis (strain CD36 / CBS 7987 / NCPF 3949 / NRRLY-17841) (Yeast), UniProt B9W6M3); test: blockers of CaCl2-induced CDRE-lacZ signaling – S. cerevisiae, luminescence, secondary, dose response (AID 2388); format: functional, cell-based;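 further: yeast reporter cells carrying a calcineurin-responsive lacZ construct stimulated with calcium chloride; luminescent beta-galactosidase reporter signal in whole cells rather than isolated phosphatase activity; potency for inhibition where a drop in reporter signal means calcineurin blockade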
Chain of Serine/threonine-protein phosphatase (B9W6M3 whole entry): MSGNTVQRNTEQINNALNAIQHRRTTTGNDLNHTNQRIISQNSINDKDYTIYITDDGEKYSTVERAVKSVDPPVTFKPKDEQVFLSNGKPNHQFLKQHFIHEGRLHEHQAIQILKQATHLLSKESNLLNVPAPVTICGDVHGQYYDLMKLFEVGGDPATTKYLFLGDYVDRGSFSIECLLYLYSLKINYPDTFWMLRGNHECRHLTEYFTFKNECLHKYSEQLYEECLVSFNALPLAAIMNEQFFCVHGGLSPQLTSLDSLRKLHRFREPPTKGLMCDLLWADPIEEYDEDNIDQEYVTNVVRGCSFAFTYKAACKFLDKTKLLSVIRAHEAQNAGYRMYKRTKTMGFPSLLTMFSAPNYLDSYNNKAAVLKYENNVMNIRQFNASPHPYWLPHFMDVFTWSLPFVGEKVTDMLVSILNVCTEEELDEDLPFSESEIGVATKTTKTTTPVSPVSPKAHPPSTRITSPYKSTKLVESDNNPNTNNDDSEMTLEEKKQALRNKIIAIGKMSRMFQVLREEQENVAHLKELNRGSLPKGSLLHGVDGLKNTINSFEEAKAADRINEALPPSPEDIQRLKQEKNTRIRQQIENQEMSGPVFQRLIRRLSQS

[6] = molecular target: ATP-dependent molecular chaperone HSP82 (Candida albicans (strain WO-1) (Yeast), UniProt C4YTQ8); test: steroid-induced GRE reporter decrease in yeast – S. cerevisiae, luminescence, Hsp90 inhibitor project, dose response (AID 2400); format: functional, cell-based;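 further: beta-galactosidase luminescence from glucocorticoid response element reporter as proxy for Hsp90 function; inhibitor potency where signal loss means Hsp90 inhibition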
Chain of ATP-dependent molecular chaperone HSP82 (C4YTQ8 whole entry): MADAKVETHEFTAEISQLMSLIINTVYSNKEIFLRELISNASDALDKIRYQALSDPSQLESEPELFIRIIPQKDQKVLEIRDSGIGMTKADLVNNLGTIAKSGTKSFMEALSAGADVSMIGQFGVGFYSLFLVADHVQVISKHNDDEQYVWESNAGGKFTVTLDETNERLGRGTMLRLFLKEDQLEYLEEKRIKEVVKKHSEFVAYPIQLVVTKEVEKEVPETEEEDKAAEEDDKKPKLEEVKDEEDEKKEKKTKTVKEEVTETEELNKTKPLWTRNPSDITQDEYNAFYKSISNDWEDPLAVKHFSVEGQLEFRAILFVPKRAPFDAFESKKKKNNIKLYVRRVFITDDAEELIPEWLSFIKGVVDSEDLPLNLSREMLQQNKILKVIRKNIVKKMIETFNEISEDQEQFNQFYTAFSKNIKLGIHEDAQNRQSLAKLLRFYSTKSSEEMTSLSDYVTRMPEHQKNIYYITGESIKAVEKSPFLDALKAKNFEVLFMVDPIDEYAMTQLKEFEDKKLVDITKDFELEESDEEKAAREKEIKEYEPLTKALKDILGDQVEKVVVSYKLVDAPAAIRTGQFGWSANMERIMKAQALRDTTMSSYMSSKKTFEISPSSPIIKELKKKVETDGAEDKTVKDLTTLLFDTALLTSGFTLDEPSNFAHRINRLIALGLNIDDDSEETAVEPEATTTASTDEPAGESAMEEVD

[7] = restored growth of temperature-sensitive Burl-1 yeast – whole organism, S. cerevisiae, Burl-1 ts mutant, luminescence, counter-screen for SUMOylation pathway inhibitor project, dose response (AID 463199); format: functional
CAAX prenyl protease 2 [8] = molecular target: CAAX prenyl protease 2 (Saccharomyces cerevisiae S288c, UniProt Q03530); format: biochemical
Chain of CAAX prenyl protease 2 (Saccharomyces cerevisiae S288c, UniProt Q03530) (Q03530 whole entry): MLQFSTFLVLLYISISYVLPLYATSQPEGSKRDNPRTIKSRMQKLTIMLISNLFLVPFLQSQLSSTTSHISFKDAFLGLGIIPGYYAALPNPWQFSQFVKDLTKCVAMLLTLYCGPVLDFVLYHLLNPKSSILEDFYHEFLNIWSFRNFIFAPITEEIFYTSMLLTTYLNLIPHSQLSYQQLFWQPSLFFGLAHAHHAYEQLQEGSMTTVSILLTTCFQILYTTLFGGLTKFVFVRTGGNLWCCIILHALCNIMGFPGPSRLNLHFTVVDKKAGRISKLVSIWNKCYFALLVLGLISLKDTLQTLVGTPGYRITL

CAAX prenyl protease 2 [9] = molecular target: CAAX prenyl protease 2 (Homo sapiens, UniProt Q9Y256); test: inhibition of Ras-converting CAAX protease Rce1 – biochemical, yeast membranes, quenched-peptide fluorescence, cherry-pick, dose response (AID 588849)
Chain of CAAX prenyl protease 2 (Homo sapiens, UniProt Q9Y256) (Q9Y256 whole entry): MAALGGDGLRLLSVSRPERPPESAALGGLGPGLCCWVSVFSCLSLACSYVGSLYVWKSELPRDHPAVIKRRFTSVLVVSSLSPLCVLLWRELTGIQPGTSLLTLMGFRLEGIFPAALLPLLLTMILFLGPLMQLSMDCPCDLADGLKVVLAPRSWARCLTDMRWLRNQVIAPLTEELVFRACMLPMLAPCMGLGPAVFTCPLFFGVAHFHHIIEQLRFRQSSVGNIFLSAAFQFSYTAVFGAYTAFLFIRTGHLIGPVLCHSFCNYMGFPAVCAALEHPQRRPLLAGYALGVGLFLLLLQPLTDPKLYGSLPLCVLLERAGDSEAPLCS

[10] = molecular target: G-protein coupled receptor 55 (Homo sapiens, UniProt Q9Y2T6); test: selective activators of receptor GPR55 – imaging, U2OS cells, beta-arrestin-GFP redistribution, primary screen (AID 1961); format: functional
Chain of G-protein coupled receptor 55 (Q9Y2T6 whole entry): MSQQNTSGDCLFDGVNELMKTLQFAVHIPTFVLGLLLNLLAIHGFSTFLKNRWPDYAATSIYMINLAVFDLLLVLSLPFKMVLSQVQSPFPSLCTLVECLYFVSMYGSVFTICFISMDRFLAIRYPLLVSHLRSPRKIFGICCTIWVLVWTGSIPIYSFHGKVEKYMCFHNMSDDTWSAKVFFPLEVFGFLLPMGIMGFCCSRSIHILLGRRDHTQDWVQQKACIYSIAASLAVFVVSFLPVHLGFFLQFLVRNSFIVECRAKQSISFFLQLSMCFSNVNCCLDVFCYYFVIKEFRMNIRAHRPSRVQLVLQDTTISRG

[11] = molecular target: T1, Microphthalmia-associated transcription factor (Homo sapiens, UniProt O75030); test: reducers of TRPM1 reporter luminescence, concentration series – cell-based, SK-MEL-5, cherry-picked, set 3, MITF inhibitor project, dose response (AID 493073); format: functional;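 further: SK-MEL-5 melanoma cells with luciferase driven by the MITF target TRPM1 promoter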
T1 sequence (O75030 whole entry): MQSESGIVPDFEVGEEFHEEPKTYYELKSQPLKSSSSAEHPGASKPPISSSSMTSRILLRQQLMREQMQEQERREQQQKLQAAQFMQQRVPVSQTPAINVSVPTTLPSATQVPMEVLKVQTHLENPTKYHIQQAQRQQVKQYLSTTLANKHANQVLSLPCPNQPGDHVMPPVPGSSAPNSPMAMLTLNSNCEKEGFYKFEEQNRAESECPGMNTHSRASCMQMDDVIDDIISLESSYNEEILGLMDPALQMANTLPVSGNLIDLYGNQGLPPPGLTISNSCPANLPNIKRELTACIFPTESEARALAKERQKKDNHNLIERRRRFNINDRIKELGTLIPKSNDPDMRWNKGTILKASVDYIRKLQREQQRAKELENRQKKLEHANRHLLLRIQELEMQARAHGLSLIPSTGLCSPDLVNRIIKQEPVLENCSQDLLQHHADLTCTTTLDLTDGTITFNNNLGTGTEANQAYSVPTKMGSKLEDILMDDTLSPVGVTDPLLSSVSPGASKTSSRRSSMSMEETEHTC

INS1 = test: INS-1E survival protection against cytokine death – cell-based, luminescence, retest, dose response (AID 449756); format: functional; settings: Rattus norvegicus;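 further: cell death triggered by IL-1 beta plus TNF-alpha plus IFN-gamma mixture; protective hits raise ATP signal compared with cytokine alone wells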
Vero = test: cells; format: functional; settings: Chlorocebus sabaeus
A-375 = test: proliferation inhibition in MITF-low A375 cells – cell-based, cherry-pick samples, set 2, counter-screen for MITF modulator project, dose response (AID 540335); format: functional; settings: Homo sapiens
[12] = blockers of HIV-1 envelope-mediated cell-cell fusion – cherry-pick, dose response (AID 652057); format: functional, cell-based
[13] = viability loss in CEM21 cells – cell-based, CellTiter-Glo luminescence, cherry-picked, cytotoxicity control for viral fusion inhibitor project, dose response (AID 652042); format: functional;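 further: potency for signal decrease meaning cytotoxicity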
[14] = blockers of HIV-1 ZM109 envelope-driven cell-cell fusion – HeLa effector, CEM target cells, luciferase, cherry-pick, dose response (AID 652058); format: functional, cell-based;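 further: luciferase signal from HIV-1 Env mediated cell-cell fusion of effector and target cells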
[15] = HIV-1 AD8 envelope cell-cell fusion blockers – cherry-pick, dose response (AID 652062); format: functional, cell-based;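 further: luciferase signal from cell-cell fusion driven by HIV-1 clade B AD8 Env; potency is for inhibitors of fusion seen as a drop in luminescence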
[16] = molecular target: Eukaryotic translation initiation factor 4E (Mus musculus, UniProt P63073); test: blockers of eIF4G binding by eIF4E – biochemical, TR-FRET, dose response (AID 855); format: functional;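 further: potency for disrupting eIF4E binding to eIF4GI seen as loss of FRET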
Chain of Eukaryotic translation initiation factor 4E (P63073 whole entry): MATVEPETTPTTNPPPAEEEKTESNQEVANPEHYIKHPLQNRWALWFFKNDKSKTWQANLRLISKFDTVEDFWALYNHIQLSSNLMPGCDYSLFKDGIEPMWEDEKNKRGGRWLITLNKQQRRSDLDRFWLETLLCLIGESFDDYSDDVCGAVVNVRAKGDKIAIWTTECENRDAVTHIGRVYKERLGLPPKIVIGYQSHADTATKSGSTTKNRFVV

Chain of Beta-2 adrenergic receptor (P07550 whole entry): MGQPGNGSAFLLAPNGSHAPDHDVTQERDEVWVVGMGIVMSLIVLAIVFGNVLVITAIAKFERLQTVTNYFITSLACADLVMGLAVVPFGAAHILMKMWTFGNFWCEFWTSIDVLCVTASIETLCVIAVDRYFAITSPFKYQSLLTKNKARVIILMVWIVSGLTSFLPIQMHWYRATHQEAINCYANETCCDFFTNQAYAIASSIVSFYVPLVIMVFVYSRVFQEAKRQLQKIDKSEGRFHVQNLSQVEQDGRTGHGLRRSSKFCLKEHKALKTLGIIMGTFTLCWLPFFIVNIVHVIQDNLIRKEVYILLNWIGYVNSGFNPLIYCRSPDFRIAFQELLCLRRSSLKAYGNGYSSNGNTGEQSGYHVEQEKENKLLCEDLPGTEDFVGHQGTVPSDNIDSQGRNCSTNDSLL

For `CCn1c(COc2ccc(Cl)cc2)nnc1SCc1ccc(C#N)cc1`, which EC50 [1] is on record?
Its EC50 is 2.11 µM (active).

What does the source list for `CCc1ccc(C2c3[nH]c4ccccc4c3CCN2C(=O)c2ccc(=O)n(C)n2)cc1` (centres undefined)?
EC50 [2]: > 160 µM (inconclusive); EC50 [3]: 0.223 µM (active); CC50 [4]: > 40 µM (active); EC50 [5]: > 180 µM (inactive); EC50 [6]: > 160 µM (inactive)

With `O=C(CSc1nnc(CNC(=O)c2ccco2)o1)Nc1nc2ccccc2s1` as the compound, how does the AC50 [7] read?
Its AC50 is 54 µM (active).

For `O=C(OC[C@@H]1CCCN2CCCC[C@H]12)c1cc2ccccc2oc1=O`, which AC50 (CAAX prenyl protease 2 [8]) is on record?
Its AC50 is 16.3 µM (active).

What about the AC50 (CAAX prenyl protease 2 [9]) of the same compound?
The AC50 was 55.9 µM (active).

With `Cc1ccc(NC2c3ncccc3C(=O)N2C2CCCCC2)cc1C` (centres undefined) as the compound, how does the AC50 [7] read?
The AC50 was 161 µM (active).

Which EC50 [10] does the source give for `CC1CCC(C(C)C)C(OC(=O)Cn2c(-c3ccc(Cl)cc3)[n+](C)c3ccccc32)C1` (centres undefined) here?
The EC50 was > 32 µM (inactive).

And the AC50 [11]?
Its AC50 is 6.29 µM (active).

And the AC50 (INS1)?
Its AC50 is 3.42 µM (active).

What about the CC50 (Vero) of the same compound?
The CC50 was > 25 µM (active).

And the AC50 (A-375)?
Its AC50 is 26.3 µM (active).

What about the AC50 [12] of the same compound?
Its AC50 is 15.7 µM (active).

What about the AC50 [13] of the same compound?
Its AC50 is 9.28 µM (active).

What about the AC50 [14] of the same compound?
The AC50 was 11.7 µM (active).

And the AC50 [15]?
The AC50 was 10.8 µM (active).

For `Cc1ccc(OCc2cc(C(=O)NCc3cnn(-c4cccc(F)c4)c3)no2)cn1`, which EC50 [2] is on record?
Its EC50 is > 160 µM (inactive).

And the EC50 [3]?
The EC50 was 0.964 µM (active).

And the EC50 [1]?
The EC50 was 0.195 µM (active).

For `O=c1c(-c2ccccc2)coc2c(CN3CCCC3)c(O)ccc12`, which IC50 [16] is on record?
Its IC50 is > 64 µM (inactive).

And the AC50 (CAAX prenyl protease 2 [9])?
The AC50 was 16.2 µM (active).
